The text below walks through data of patent US20040048892A1, “Treatment of diseases with adamantane derivatives” (priority 2000, published 2004).

Read-outs that look alike come from different tables or passages of the source.

The target in one assay is T1, nAChR currents in OHCs (Rattus norvegicus, UniProt P43144+Q9JLB5).
T1 construct: Currents through nAChRs were recorded from an OHC; from tissue; host or cells: outer hair cells in the apical turn of the organ of Corti, Wistar rat
Description: Steady-state block of nAChR currents in OHCs (BAPTA intracellular solution). In kind it is cell-based, Wistar rats. The note with it: −94 mV, 200 μM ACh, 10 mM BAPTA. On the procedure: (§1) The apical turn of the organ of Corti was dissected from cochleae of three to six week old Wistar rats as described previously (Oliver et al., 1999, J Physiol (Lond) 519, 791-800; Oliver et al., 2000, Neuron 26, 595-601). The preparation was performed in a solution containing (in mM) 144 NaCl, 5.8 KCl, 0.1 CaCl2, 2.1 MgCl2, 10 HEPES, 0.7 Na2HPO4, 5.6 glucose, pH adjusted to 7.3 with NaOH. For recordings, OHCs located between half and one turn from the apex of the cochlea were chosen. If necessary, supporting cells were removed with gentle suction from a cleaning pipette carefully avoiding mechanical disturbance of the efferent nerve terminals.
Whole-cell patch-clamp recordings were performed with an Axopatch 200B amplifier (Axon Instruments, Foster City, Calif.) at room temperature (22-25° C.). Electrodes were pulled from quartz glass, had resistances of 2-3 MΩ and were filled with intracellular solution (in mM): 135 KCl, 3.5 MgCl2, 0.1 CaCl2, 5 EGTA, 5 HEPES, 2.5 Na2ATP. […]
(A) Steady-state block of nAChR currents in OHCs by memantine. Currents through nAChRs were recorded from an OHC at a holding potential of −94 mV. […] (B) Dose-inhibition relation for memantine block of nAChR currents (squares), recorded from 4 OHCs as in (A). Steady-state amplitudes were normalized to the value recorded in the absence of memantine. […]

The target of assay [1] is T2, nAChR-induced SK2 current (α9/α10 nAChR with SK2 channels) (Rattus norvegicus, UniProt P43144+Q9JLB5).
T2 construct: The coding region of the rat α10 gene; expressed in transfected cells; host or cells: Xenopus laevis oocytes (mRNA co-injection)
T2 sequence (P43144 26-479): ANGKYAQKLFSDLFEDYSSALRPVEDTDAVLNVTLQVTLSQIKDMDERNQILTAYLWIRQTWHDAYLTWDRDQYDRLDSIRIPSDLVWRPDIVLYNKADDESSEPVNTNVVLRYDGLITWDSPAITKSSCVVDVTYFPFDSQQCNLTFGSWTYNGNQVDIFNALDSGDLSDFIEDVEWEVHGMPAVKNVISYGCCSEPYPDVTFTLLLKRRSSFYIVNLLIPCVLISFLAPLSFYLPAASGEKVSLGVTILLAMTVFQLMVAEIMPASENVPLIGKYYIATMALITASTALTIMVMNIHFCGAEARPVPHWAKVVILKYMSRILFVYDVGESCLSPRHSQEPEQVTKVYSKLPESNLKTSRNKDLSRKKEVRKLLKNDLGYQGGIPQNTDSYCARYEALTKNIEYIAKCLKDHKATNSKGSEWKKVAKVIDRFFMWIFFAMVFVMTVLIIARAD
T2 sequence (Q9JLB5 25-447): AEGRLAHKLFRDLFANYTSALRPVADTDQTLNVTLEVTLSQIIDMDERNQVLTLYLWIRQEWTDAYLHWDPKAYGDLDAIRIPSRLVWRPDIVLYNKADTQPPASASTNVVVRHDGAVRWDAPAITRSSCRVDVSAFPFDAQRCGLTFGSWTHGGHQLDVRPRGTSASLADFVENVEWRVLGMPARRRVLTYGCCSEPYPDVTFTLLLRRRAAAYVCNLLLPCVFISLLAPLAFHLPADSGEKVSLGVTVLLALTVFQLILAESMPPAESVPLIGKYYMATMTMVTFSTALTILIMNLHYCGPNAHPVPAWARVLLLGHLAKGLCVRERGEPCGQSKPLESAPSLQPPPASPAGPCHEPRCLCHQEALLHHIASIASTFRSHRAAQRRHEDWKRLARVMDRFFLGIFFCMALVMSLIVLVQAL
Briefly: nAChR-induced SK2 current in oocytes coexpressing α9, α10 and SK2. Type of assay: cell-based. The note with it: −30 mV, 100 μM ACh. On the procedure: (§2) In vitro mRNA synthesis and oocyte injections were performed as previously described (Fakler et al., 1995, Cell 80, 149-154; Oliver et al., 2000, see above). The electrophysiology on oocytes was also as described previously (Oliver et al., 2000, see above). In detail, AChR subunits and SK2 channels were heterologously expressed in Xenopus oocytes. Oocytes were surgically removed from adult females and dissected manually. 4-5 day prior to electrophysiological recordings, Dumont stage VI oocytes were injected with about 50 ng RNA. For coexpression experiments, the total amount of RNA was kept constant and the different RNAs were coinjected in equal concentrations. Two-electrode voltage-clamp measurements were performed with a TurboTec 01C amplifier (npi, Tamm, Germany), using microelectrodes of 0.1 to 0.5 MΩ filled with 3 M KCl. Extracellular medium was CaNFR, containing (in mM): 120 KCl, 2.5 KCl, 2 CaCl2, 10 HEPES, pH adjusted to 7.3 with NaOH. For experiments in the absence of extracellular Ca^2+, the extracellular solution was MgNFR (in mM): 120 KCl, 2.5 KCl, 2 MgCl2, 10 HEPES, pH adjusted to 7.3 with NaOH. […]
(A) Application of 100 μM ACh for the time indicated to an oocyte coexpressing α9, α10, and SK2. […] Peak outward currents were recorded at −30 mV and were normalized to the values preceding memantine application.

For assay [2], the target named is NMDA-type glutamate receptors. The note with it: at −70 mV; cited from earlier work.
Assay [3] has as its target T3, α9/α10 heteromeric acetylcholine receptors (Rattus norvegicus, UniProt P43144+Q9JLB5).
T3 construct: The coding region of the rat α10 gene; expressed in transfected cells; host or cells: Xenopus laevis oocytes (mRNA injection)
Description: Experiment 6: voltage-clamp on alpha9/alpha10 acetylcholine receptors in Xenopus laevis oocytes. In kind it is cell-based. To be noted: cells held at −30 mV, 100 μM acetylcholine; read-out: halfmaximal inhibition concentration. The method, then:
as §2, with “NaOH.” for “NaOH. For experiments in the absence of extracellular Ca^2+, the extracellular solution was MgNFR (in mM): 120 KCl, 2.5 KCl, 2 MgCl2, 10 HEPES, pH adjusted to 7.3 with NaOH.”
For further characterization of memantine treatment on the nAChR, the mRNA of alpha9/alpha10 subunits of the acetylcholine receptor were injected in oocytes of Xenopus laevis. […] In this experiment the polarization potential of the cells was measured after application of 100 μM acetylcholine in the presence or absence of memantine. […]

The subject of assay [4] is inhibitory postsynaptic currents (IPSC) in outer hair cells (OHCs). Description: Patch-clamp recording of inhibitory postsynaptic currents (IPSC) in outer hair cells. In kind it is cell-based, Wistar rats. On the procedure: as §1
Whole-cell patch-clamp recordings were performed with an Axopatch 200B amplifier (Axon Instruments, Foster City, Calif.) at room temperature (22-25° C.). Electrodes were pulled from quartz glass, had resistances of 2-3 MΩ and were filled with intracellular solution (in mM): 135 KCl, 3.5 MgCl2, 0.1 CaCl2, 5 EGTA, 5 HEPES, 2.5 Na2ATP. For one series of experiments, an intracellular solution containing the Ca^2+-chelator BAPTA was used (in mM): 120 KCl, 3.5 MgCl2, 10 BAPTA, 5 HEPES, 2.5 Na2ATP. The pH of both solutions was adjusted to pH 7.3 with KOH. Membrane potential was corrected for the electrode junction potential (−4 mV). Whole-cell series resistance ranged from 4 to 9 MΩ and was not compensated. Currents were filtered at 1 kHz and sampled at 5 kHz. The specimen were continuously superfused with extracellular solution (in mM: 144 NaCl, 5.8 KCl, 2 CaCl2, 0.9 MgCl2, 10 HEPES, 0.7 Na2HPO4, 5.6 glucose, pH adjusted to 7.3 with NaOH). Chemicals as well as depolarizing solutions were applied via a glass capillary (diameter approximately 80 μm) positioned close to the organ of Corti. […]
In FIG. 1, postsynaptic currents were recorded from OHCs in voltage-clamp experiments when cells were held at −64 mV and the whole Corti preparation was superfused with high extracellular K^+ to depolarize the presynapse. […] This dose-dependent response determined for the IPSC in OHCs is illustrated in FIG. 1B.

The target in a further assay is T4, α9/α10 nAChR (Rattus norvegicus, UniProt P43144+Q9JLB5).
T4 construct: The coding region of the rat α10 gene; expressed in transfected cells; host or cells: Xenopus laevis oocytes (mRNA injection)
T4 sequence (P43144 26-479): as the sequence (P43144 26-479) above
T4 sequence (Q9JLB5 25-447): as the sequence (Q9JLB5 25-447) above
Briefly: Two-electrode voltage-clamp on α9/α10 nAChR expressed in Xenopus oocytes. Type of assay: cell-based. The method, then:
In vitro mRNA synthesis and oocyte injections were performed as previously described (Fakler et al., 1995, Cell 80, 149-154; Oliver et al., 2000, see above). The electrophysiology on oocytes was also as described previously (Oliver et al., 2000, see above). In detail, AChR subunits and SK2 channels were heterologously expressed in Xenopus oocytes. Oocytes were surgically removed from adult females and dissected manually. 4-5 day prior to electrophysiological recordings, Dumont stage VI oocytes were injected with about 50 ng RNA. For coexpression experiments, the total amount of RNA was kept constant and the different RNAs were coinjected in equal concentrations. Two-electrode voltage-clamp measurements were performed with a TurboTec 01C amplifier (npi, Tamm, Germany), using microelectrodes of 0.1 to 0.5 MΩ filled with 3 M KCl. Extracellular medium was CaNFR, containing (in mM): 120 KCl, 2.5 KCl, 2 CaCl2, 10 HEPES, pH adjusted to 7.3 with NaOH. For experiments in the absence of extracellular Ca^2+, the extracellular solution was MgNFR (in mM): 120 KCl, 2.5 KCl, 2 MgCl2, 10 HEPES, pH adjusted to 7.3 with NaOH. ACh and memantine were added from stock solutions and applied through an application system, that allowed solution exchange with a time constant of ˜1s. Currents were filtered at 100 Hz and sampled at a frequency of 1 kHz. Dose-inhibition relations obtained from electrophysiological experiments were fitted to the empirical Hill equation, [formula]
where Inorm is the normalized current, c is the blocker concentration, IC50 is the half-inhibitory concentration, and nH is the Hill coefficient. Data analysis and fitting was performed with IgorPro (Wavemetrics, Lake Oswego, Oreg.) on a Macintosh PowerPC. Unless stated otherwise, data are presented as mean±standard deviation.
The coding region of the rat α10 gene (GenBank Accession No. AF196344) was amplified from rat brain cDNA by PCR using 5′- and 3′-adapter-primers containing suitable restriction sites (GA-GACCCGGGAGCTCCACC, […] and […]). The amplified fragments were subcloned into the Xenopus oocyte expression vector pGEM-HE (gift of Dr. J. Tytgat), yielding pGEM-HE-nAChR-α10, verified by sequencing. Capped mRNAs for α9, α10 and SK2 were synthesized in vitro using the mMESSAGE mMACHINE kit (Ambion, Austin, Tex.). To detect α10 and α9 transcripts, PCR was performed using reverse transcribed RNA isolated from either OHCs (containing some Deiters cells) or supporting cells (Deiters and Hensen's cells) as template. Cells were collected from rat organs of Corti using suction glass micropipettes (diameter 10 μm). RNA was prepared from ˜100 cells of each fraction using the Qiagen RNeasy kit (Qiagen, Hilden, FRG) according to the manufacturers instructions. The oligonucleotides used as primers in the PCR reactions were chosen to span an intron in the human α9 and α10 genes to allow differentiation between products originating from cDNA and products originating from contaminating genomic DNA.
In (A) currents evoked by activation of α9/α10 nAChRs are dependent on external Ca^2+. Traces show subsequent applications of 100 μM ACh to the same oocyte in CaNFR (Ca^2+) and MgNFR (Mg^2+) at −80 mV. (B) Currents from homomeric α9 (upper trace) and heteromeric α9/α10 nAChRs (lower trace), recorded by application of 100 μM ACh in nominally Ca^2+-free external solution (MgNFR; −80 mV). (C) Current amplitudes from oocytes expressing α9 and α9/α10, recorded as in FIG. 3B (mean±standard error from 12 and 15 oocytes, respectively). (D) ACh-induced (100 μM) currents recorded from α9/α10 nAChRs in the presence of the memantine concentrations indicated. (E) Memantine dose-inhibition curves of α9/α10 nAChR. Peak currents were recorded as in (D) and normalized to the current amplitude after washout of the blocker. […] (F) I-v relations of α9/α10 nAChR recorded in the absence (black) and presence (gray trace) of 1 μM memantine in response to 2 s voltage ramps from −100 to +50 mV. […]

A further assay addresses neuronal α4/β2 nAChRs (Homo sapiens, UniProt P17787+P43681). To be noted: at −100 mV; cited from earlier work.

T1 sequence (P43144 26-479): as the sequence (P43144 26-479) above
T1 sequence (Q9JLB5 25-447): as the sequence (Q9JLB5 25-447) above
T3 sequence (P43144 26-479): as the sequence (P43144 26-479) above
T3 sequence (Q9JLB5 25-447): as the sequence (Q9JLB5 25-447) above
Sequence of neuronal α4/β2 nAChRs (P43681 29-627 limits assumed): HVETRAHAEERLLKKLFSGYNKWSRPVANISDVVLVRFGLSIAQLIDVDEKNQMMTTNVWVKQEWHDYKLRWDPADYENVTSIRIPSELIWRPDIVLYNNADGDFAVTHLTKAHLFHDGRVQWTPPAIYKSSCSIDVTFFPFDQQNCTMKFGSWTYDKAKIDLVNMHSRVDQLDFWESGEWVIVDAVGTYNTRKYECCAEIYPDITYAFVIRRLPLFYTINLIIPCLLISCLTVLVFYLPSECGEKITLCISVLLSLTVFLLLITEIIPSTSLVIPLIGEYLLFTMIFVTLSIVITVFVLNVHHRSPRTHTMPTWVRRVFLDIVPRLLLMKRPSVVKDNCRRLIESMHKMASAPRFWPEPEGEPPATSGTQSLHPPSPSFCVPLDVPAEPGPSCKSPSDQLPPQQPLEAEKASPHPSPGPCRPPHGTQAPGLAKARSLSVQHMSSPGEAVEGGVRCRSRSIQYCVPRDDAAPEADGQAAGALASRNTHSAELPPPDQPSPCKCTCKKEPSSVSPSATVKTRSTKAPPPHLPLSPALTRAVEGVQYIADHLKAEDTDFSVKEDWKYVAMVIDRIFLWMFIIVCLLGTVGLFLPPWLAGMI
Sequence of neuronal α4/β2 nAChRs (P17787 26-502): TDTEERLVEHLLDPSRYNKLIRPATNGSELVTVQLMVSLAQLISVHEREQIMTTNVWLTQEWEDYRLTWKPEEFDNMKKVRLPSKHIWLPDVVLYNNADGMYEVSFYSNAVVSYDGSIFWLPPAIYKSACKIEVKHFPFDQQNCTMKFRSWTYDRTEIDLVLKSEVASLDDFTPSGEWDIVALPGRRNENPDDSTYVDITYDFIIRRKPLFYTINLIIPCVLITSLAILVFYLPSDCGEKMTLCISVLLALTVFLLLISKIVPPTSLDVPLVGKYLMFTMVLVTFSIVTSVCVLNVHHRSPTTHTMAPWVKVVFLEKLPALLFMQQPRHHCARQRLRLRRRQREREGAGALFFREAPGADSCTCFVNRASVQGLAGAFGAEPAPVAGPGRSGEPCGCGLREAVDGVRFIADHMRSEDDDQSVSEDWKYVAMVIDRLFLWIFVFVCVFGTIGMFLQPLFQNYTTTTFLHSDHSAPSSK

Turning to `CC12CC3CC(C)(C1)CC(N)(C3)C2` [memantine, 3.5-dimethyl-1-adamantanamine], at nAChR currents in OHCs, the “Hill coefficient nH of block of nAChR currents in OHCs” value is recorded as 0.9. The IC50 is 1.1 µM against nAChR currents in OHCs (steady-state); 0.7 µM in assay [1] (peak outward currents, read-out: IC50 of inhibition of the nAChR-induced SK2 current); roughly 1 µM in assay [2]; roughly 1 µM in assay [3]; roughly 16.6 µM in assay [4] (Rattus norvegicus, iPSC, read-out: IC50 for inhibition of IPSC in OHCs); 1.3 µM at α9/α10 nAChR (CaNFR (2 mM Ca2+), 100 μM ACh, peak currents, read-out: IC50 of block of α9/α10 nAChR current). Also, the IC50 on α9/α10 nAChR (MgNFR (nominally Ca2+-free), 100 μM ACh, peak currents, read-out: IC50 of block of α9/α10 nAChR current) was 1.6 µM; at α9/α10 nAChR (summary of FIGS. 3E, 5B, read-out: affinity for memantine of α9/α10 receptors), roughly 1 µM; on neuronal α4/β2 nAChRs, 7 µM. The “Hill coefficient nH of inhibition of the nAChR-induced SK2 current” value in assay [1] came out at 1.1. For the same compound, in assay [4], the “Hill coefficient of inhibition of IPSCs” value is listed as 2. Besides, in assay [4] (IPSCs in OHCs vs SK2 currents in oocytes), the “fold higher concentrations required for inhibition of IPSCs than for inhibition of SK2 currents in the oocyte system” value came out at 10 fold. In addition, the “Increase of memantine block from +50 mV to −80 mV (factor)” value at α9/α10 nAChR (1 μM memantine, voltage ramps, MgNFR) is given as 1.6. Moreover, the “Hill coefficient nH of block of α9/α10 nAChR current” value is 1.0 at α9/α10 nAChR (CaNFR, 100 μM ACh) and 1.2 on α9/α10 nAChR (MgNFR, 100 μM ACh).
